Laboratory results: PMC4030953, “Pyranose Dehydrogenase from Agaricus campestris and Agaricus xanthoderma: Characterization and Applications in Carbohydrate Conversions” (Biomolecules, 2013)

Experiments:
[1] = biological target: T1, AcPDH (Agaricus campestris, UniProt V5NDL4); experiment: in-gel flavin fluorescence after SDS-PAGE; assay type: binding; conditions: covalent; UV 302 nm
T1 construct: gene pdh1

[2] = biological target: T1, AcPDH; experiment: spectrophotometric electron acceptor reduction; assay type: biochemical; conditions: apparent, 25 mM D-glucose, pH 8.5, 30 °C
Text: spectrophotometric electron acceptor reduction on AcPDH

[3] = biological target: T2, AxPDH (Agaricus xanthodermus, UniProt V5NC32); experiment: spectrophotometric electron acceptor reduction; assay type: biochemical; conditions: apparent, 25 mM D-glucose, pH 8.5, 30 °C
T2 construct: gene pdh1
Text: spectrophotometric electron acceptor reduction on AxPDH

T1 sequence (V5NDL4 22-595): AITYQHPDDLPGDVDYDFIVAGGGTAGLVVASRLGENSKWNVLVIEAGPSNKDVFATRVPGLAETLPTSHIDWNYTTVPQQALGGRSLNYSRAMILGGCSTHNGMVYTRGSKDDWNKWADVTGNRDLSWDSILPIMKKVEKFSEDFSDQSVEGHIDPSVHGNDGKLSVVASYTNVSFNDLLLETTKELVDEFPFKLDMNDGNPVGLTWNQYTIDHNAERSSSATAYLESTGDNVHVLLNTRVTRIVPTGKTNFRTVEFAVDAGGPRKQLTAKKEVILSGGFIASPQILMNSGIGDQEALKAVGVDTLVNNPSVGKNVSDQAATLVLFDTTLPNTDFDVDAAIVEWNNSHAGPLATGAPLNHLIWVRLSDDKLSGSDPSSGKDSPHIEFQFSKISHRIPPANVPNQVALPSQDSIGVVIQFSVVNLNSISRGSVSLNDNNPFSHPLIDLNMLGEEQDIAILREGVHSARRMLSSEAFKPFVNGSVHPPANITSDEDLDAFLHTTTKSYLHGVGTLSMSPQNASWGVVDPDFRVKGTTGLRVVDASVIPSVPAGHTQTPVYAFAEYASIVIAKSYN
T2 sequence (V5NC32 26-600): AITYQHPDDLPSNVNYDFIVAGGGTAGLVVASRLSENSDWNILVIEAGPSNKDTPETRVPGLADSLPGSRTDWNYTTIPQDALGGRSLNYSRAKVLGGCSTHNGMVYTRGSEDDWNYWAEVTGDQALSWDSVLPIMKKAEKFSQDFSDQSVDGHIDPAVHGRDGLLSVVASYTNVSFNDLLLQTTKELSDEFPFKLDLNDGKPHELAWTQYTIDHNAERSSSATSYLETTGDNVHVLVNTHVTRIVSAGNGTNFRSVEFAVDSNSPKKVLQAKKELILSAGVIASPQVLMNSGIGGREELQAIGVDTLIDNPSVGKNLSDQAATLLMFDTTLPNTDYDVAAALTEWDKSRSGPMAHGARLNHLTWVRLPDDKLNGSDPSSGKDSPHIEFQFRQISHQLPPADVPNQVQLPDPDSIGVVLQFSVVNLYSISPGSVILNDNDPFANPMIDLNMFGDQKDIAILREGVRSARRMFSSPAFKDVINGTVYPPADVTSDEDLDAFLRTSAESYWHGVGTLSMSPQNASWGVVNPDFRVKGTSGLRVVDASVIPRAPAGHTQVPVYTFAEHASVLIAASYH

SMILES | in-gel flavin fluorescence after SDS-PAGE [1] | Km [2] [µM] | Km [3] [µM]
Cc1cc2nc3c(=O)[nH]c(=O)nc-3n(C[C@H](O)[C@H](O)[C@H](O)COP(=O)(O)OP(=O)(O)OC[C@H]3O[C@@H](n4cnc5c(N)ncnc54)[C@H](O)[C@@H]3O)c2cc1C [FAD] | AcPDH and AxPDH showed a bright band under UV-light |  | 
F[P-](F)(F)(F)(F)F.[Fe+3].c1cc[cH-]c1.c1cc[cH-]c1 [Fc^+PF6] |  | 1190 ± 170 | 30
